# Source: US7169806B2, “Antidiabetic agents” (Ferring BV, priority 1999, dated 2007)
# System: male Zucker Fatty Rats
# Test: In vivo activity in glucose tolerance model (oral glucose challenge)
# Design: species or system rat
# Conditions: mean ± SE, n = 4; for Blood glucose, t = 10: t = 10 minutes; for Blood glucose, t = 20: t = 20 minutes; for Blood glucose, t = 30: t = 30 minutes; for Blood glucose, t = 60: t = 60 minutes; for Blood glucose, t = 120: t = 120 minutes
# Protocol: The activity of the compounds was investigated in male Zucker Fatty Rats between 10 and 20 weeks of age. The animals were fasted overnight and then administered with the test compound (10 mg/kg) as a solution by oral gavage. One hour later hour a blood sample (200 μl) is taken from the tail vein to establish a baseline (t=0) glucose level, then the animals are given glucose (1 g/kg as a 40% wt/vol solution) orally. Further blood samples are taken at t=10, 20, 30, 60 and 120 minutes. Glucose is determined by an enzymatic assay.
# In a separate experiment the test compound was given at the same dose (10 mg/kg) but 12 hours before the oral glucose challenge.
# [1] = 10 mg/kg given 12 hours before the oral glucose challenge
# [2] = 10 mg/kg oral gavage 1 hour before oral glucose (1 g/kg), baseline t = 0
# [3] = 10 mg/kg oral gavage 1 hour before oral glucose (1 g/kg)
SMILES,AUC (area under the concentration-time curve) of blood glucose [1],"Blood glucose, t = 0 (10 mg/kg given 12 hours before the oral glucose challenge, t = 0) [mg/dL]","Blood glucose, t = 10 [1] [mg/dL]","Blood glucose, t = 20 [1] [mg/dL]","Blood glucose, t = 30 [1] [mg/dL]","Blood glucose, t = 60 [1] [mg/dL]","Blood glucose, t = 120 [1] [mg/dL]","Blood glucose, t = 0 [2] [mg/dL]","Blood glucose, t = 10 [3] [mg/dL]","Blood glucose, t = 20 [3] [mg/dL]","Blood glucose, t = 30 [3] [mg/dL]","Blood glucose, t = 60 [3] [mg/dL]","Blood glucose, t = 120 [3] [mg/dL]"
"CC(=O)OC(C)OC(=O)N[C@H](C(=O)N1CCC[C@H]1C#N)C(C)(C)C (stereo partly drawn) [Example 1, (2S)-1-((2′S)-2′-(1″-Acetoxyethoxycarbonylamino)-3′,3′-dimethylbutanoyl)pyrrolidine-2-carbonitrile]",2430 ± 591,83.7 ± 3.8,113.5 ± 10.8,111.3 ± 9.9,91.9 ± 11.8,99.3 ± 10.0,116.9 ± 14.4,–,–,–,–,–,–
"CC[C@H](C)[C@H](NC(=O)OC(C)OC(C)=O)C(=O)N1CCC[C@H]1C#N (stereo partly drawn) [Example 2, (2S)-1-(N′-(1″-Acetoxyethoxycarbonyl)isoleucyl)pyrrolidine-2-carbonitrile]",–,–,–,–,–,–,–,80.2 ± 4.2,122.2 ± 7.8,117.8 ± 4.8,104.4 ± 5.6,117.6 ± 6.7,111.3 ± 12.1
"CC[C@H](C)[C@H](NC(=O)OC)C(=O)N1CCC[C@H]1C#N [Example 3, (2S)-1-(N′-(Methoxycarbonyl)isoleucyl)pyrrolidine-2-carbonitrile]",–,–,–,–,–,–,–,86.4 ± 3.4,175.1 ± 3.8,148.5 ± 23.2,136.7 ± 16.9,120.6 ± 8.3,101.9 ± 4.5
"CC[C@H](C)[C@H](NC(=O)CN)C(=O)N1CCC[C@H]1C#N [Example 5, (2S)-1-(Glycylisoleucyl)pyrrolidine-2-carbonitrile]",–,–,–,–,–,–,–,80.5 ± 1.4,141.3 ± 14.5,134.2 ± 10.3,129.2 ± 8.2,114.6 ± 8.1,121.2 ± 5.8
"CC[C@H](C)[C@H](N)C(=O)N1CCC[C@H]1C#N [Reference, (2S)-1-(Isoleucyl)pyrrolidine-2-carbonitrile, reference compound]",–,–,–,–,–,–,–,91.4 ± 5.2,125.8 ± 8.9,110.0 ± 21.5,110.9 ± 4.4,112.2 ± 7.5,108.7 ± 8.9
